Holding throughout (format): in vivo
One experiment relates to Xanthomonas campestris. Kind of experiment: Effect on Xanthomonas campestris on Zinnia, foliar spray. The following applies: for Efficacy 12 DAT* (%): 1 spray application, 12 days after treatment, rate per substance as in Table 3. The method, then:
Vegetatively mature zinnia plants were treated with pydiflumetofen treatments by foliar spray (for Xanthomonas or Pseudomonas spp.). One to two days post treatment, the plants were atomized with a bacterial suspension (1×10^8 cfu/mL, determined with a spectrometer) and maintained at 100% relative humidity for 24 to 48 hours to promote infection. The plants were then maintained in a greenhouse or outdoor shade structure and disease incidence and severity recorded, as well as plant health and fresh weight if applicable.

The next experiment deals with Xanthomonas orycea. The experiment can be described thus: Comparison of SDHI fungicides on Xanthomonas orycea / rice / preventative (bacterial blight of rice). The following applies: for Efficacy (%): rice cv. Balilla, preventative spray, 14 days incubation. The method, then: 3 week old rice plants cv. Balilla were treated with the formulated test compound in a spray chamber. Two days after application rice plants were infected by cutting the upper leaf level and the bacteria suspension applied on the cutting edges. After an incubation period of 14 days at 23° C. and 80% relative humidity, a visual assessment of the disease level was performed.

For the next experiment, the system named is Ralstonia spp. Kind of experiment: Effect on Ralstonia spp. on Geranium, drench, wilt. As to the method:
Vegetatively mature geranium plants were treated with pydiflumetofen treatments by drench (Ralstonia spp.). One to two days post treatment, the inoculum was applied as a soil-drench. The plants were then maintained in a greenhouse or outdoor shade structure and disease incidence and severity were recorded.

The next experiment relates to Xanthomonas perforans. The experiment can be described thus: Greenhouse test on tomato plants inoculated with Xanthomonas perforans (tomato bacterial spot), injured leaf area. The following applies: up to 18 days after inoculation. The method, then:
The experiment was carried out in a greenhouse in the Olericulture Sector of the Federal University of Goiás. The location has temperature and humidity control. Tomato seedlings cv. Totalle with two true leaves were transplanted into 1 L pots containing professional growing media. Two days after transplanting, the first application of the substances was carried out. Bion (acibenzolar-S-methyl, 25 g product/ha—12.5 g ai/ha), Miravis (pydiflumetofen, 0.60 kg product/ha—120 g ai/ha), Kocide (copper hydroxide, 1.50 kg product/ha) and Kasumin (kasugamycin, 2 L product/ha) were evaluated. The untreated control received only water. For application, the pots were placed on the floor and spraying was carried out using a spray device (having 6 nozzles with 0.5 m spacing between nozzles) with a pressurized CO2 sprayer and a spray volume of 300 L/ha.
The applications were carried out on days 1, 7 and 14. On day 9 (between the second and third applications), inoculation with a Xanthomonas perforans isolate was performed. The plants were uniformly sprayed once over all leaves with a suspension of the pathogen at a concentration of […] colony forming units per millilitre (cfu/mL). Three evaluations were performed at 6, 13 and 18 days after inoculation (DAI), and the percentage of injured leaf (area of leaf with bacterial spot) area was calculated.

SMILES strings stand for the structures.

With `Cn1cc(C(=O)Nc2cccc3c2[C@@H]2CC[C@H]3C2=C(Cl)Cl)c(C(F)F)n1` (racemic) [Benzovindiflupyr, reference compound], the “Efficacy 12 DAT* (%)” value in the experiment with Xanthomonas campestris is given as 63%.

With `O=C(Nc1ccccc1-c1ccc(Cl)cc1)c1cccnc1Cl` [Boscalid], the “Efficacy (%)” value with Xanthomonas orycea (6 Mg ai/L), in the experiment with Xanthomonas orycea (20 Mg ai/L) and with Xanthomonas orycea (60 Mg ai/L) was 0% throughout.

As to `Cn1cc(C(=O)Nc2ccccc2-c2cc(F)c(F)c(F)c2)c(C(F)F)n1` [Fluxapyroxad], the “Efficacy (%)” value in the experiment with Xanthomonas orycea (6 Mg ai/L), in the experiment on Xanthomonas orycea (20 Mg ai/L) and in the experiment with Xanthomonas orycea (60 Mg ai/L) was 0% throughout.

On to `CC(C)c1ccc(Cl)cc1CN(C(=O)c1c(C(F)F)nn(C)c1F)C1CC1` [Isoflucypram], for which the “Efficacy (%)” value in the experiment on Xanthomonas orycea (6 Mg ai/L), in the experiment on Xanthomonas orycea (20 Mg ai/L) and with Xanthomonas orycea (60 Mg ai/L) was 0% throughout.

Turning to `CON(C(=O)c1cn(C)nc1C(F)F)C(C)Cc1c(Cl)cc(Cl)cc1Cl` (centres unmarked) [Pydiflumetofen, 3-(difluoromethyl)-N-methoxy-1-methyl-N-[1-methyl-2-(2,4,6-trichloro-phenyl)ethyl]-1H-pyrazole-4-carboxamide], the “Efficacy 12 DAT* (%)” value in the experiment on Xanthomonas campestris is 84%. Also, the “control of Xanthomonas campestris (in words)” value in the experiment with Xanthomonas campestris (spray) was “good control”. Besides, the “control of Xanthomonas orycea (in words)” value with Xanthomonas orycea (6 mg ai/L) is “marginal effect”; in the experiment with Xanthomonas orycea (20 to 60 mg ai/L), “good control”. Also, the “Efficacy (%)” value with Xanthomonas orycea (6 Mg ai/L) came to 13%; in the experiment on Xanthomonas orycea (20 Mg ai/L) it was 72%; with Xanthomonas orycea (60 Mg ai/L) it was 99%. Moreover, in the experiment with Ralstonia spp., the “control or suppression of Ralstonia spp. (in words)” value is reported as “control or suppression”. Moreover, in the experiment with Ralstonia spp. (14 DAT), the “% Wilt 14 DAT” value amounted to 3.5%. Also, in the experiment on Ralstonia spp. (14 DAT), the “% efficacity vs. inoculated check, 14 DAT” value is 84%. In addition, the “% Wilt 28 DAT” value with Ralstonia spp. (28 DAT) worked out at 18%. Moreover, the “% efficacity vs. inoculated check, 28 DAT” value in the experiment on Ralstonia spp. (28 DAT) is on record as 87%. Besides, the “control of Xanthomonas perforans (in words)” value in the experiment on Xanthomonas perforans was “good control”.

Source of the values: US20240397947A1 (priority 2021, published 2024).
